US6083964A, “Optical resolution of racemic aminoalkylpyridine anticonvulsants and (+) aminoalkylpyridine enantiomers as highly potent orally effective anticonvulsant drugs and excitatory amino acid antagonists” (K and K Biosciences, Inc., priority 1999, dated 2000)

Key:
hippocampal kindled rats = assay: Hippocampal kindled rat model, i.p.; format: in vivo; set-up: key to Seizure Score ± S.E.M.: Racine seizure class scale; class 5 = rearing and falling; details: for seizure score and afterdischarge duration (in words): hippocampal kindled rat
Source text: "Kindling" refers to the process whereby repeated administration of an initially subconvulsive electrical stimulus results in progressive intensification of epileptic discharge culminating in a generalized seizure. Kindling can be induced by electrical stimulation of many sites in the brain, especially in "limbic" areas, which include amygdala, hippocampus, and entorhinal cortex [Racine, R., Neurosurgery, 3, 234-252 (1978)]. Kindling is reliably produced by a one second train of 60 Hz square wave stimuli of one millisecond duration at current levels which initially produce only a slight afterdischarge (AD), but no behavioral response. Repeated stimulation, typically once daily, results in a progressive increase in AD amplitude, duration and complexity with subsequent spread to other brain areas culminating in a fully generalized motor seizure. [Racine, R. J. and Zaide, J., In "Mechanisms, the Continuing Evolution of the Limbic System Concept" (K. E. Livingston and O. Hornykiewicz, eds.), Plenum Press, pp. 457-493, 1978.
The development of kindling in the rat has been characterized by five (1 to 5) behavioral and electrographic "classes". The behavior in classes 1 (facial clonus) and 2 (head nodding) mimics that found in human complex partial seizures; the behavior in other classes would be consistent with limbic seizures evolving to generalized motor seizures. An animal is considered to be fully kindled once the enhanced sensitivity has developed, as evidenced by a class 5 seizure (rearing and falling).
The (+) AAP enantiomer, compound 1 in Table 1, was tested in the hippocampal kindled rat, by the i.p. route. […]
The (-) AAP enantiomer, compound 2 in Table 1, was also tested in the hippocampal kindled rat, by the i.p. route.

[1] = system: maximal electroshock seizure (MES) in rats; assay: Maximal electroshock seizure (MES) test, rats, p.o.; format: in vivo, rat (Sprague-Dawley); details: rat, p.o.; for ED50: MES test; for P.I. (protective index, TD50/ED50): MES
Source text: The (+) AAP enantiomers obtained by optical resolution of racemic AAPs and the resulting highly orally effective anticonvulsant compositions of this invention are useful in the treatment of convulsive disorders. […] A series of (+) AAP enantiomers and (-) AAP enantiomers of this invention has been evaluated for anticonvulsant activity by the intraperitoneal (i.p.) and by the oral (p.o.) route using two standard seizure models in the mouse and in the rat, the maximal electroshock seizure (MES) test and the subcutaneous pentylenetetrazol (Metrazole) seizure threshold (scMet) test. […] The following Table 2 presents the results of these anticonvulsant tests with respect to several (+) and (-) AAP enantiomeric compounds derived from optical resolution of racemic AAPs of the present invention. This Table 2 identifies the specific compounds tested by their chemical name and provides the test model, the route of administration, the animal species used, and the anticonvulsant activity and toxicity in terms of ED50 and TD50 values, (the median effective and toxic dose respectively), when intraperitoneally administered to mice, and when orally administered to rats. The Maximal Electroshock Seizure Test (MES): Maximal electroshock seizures are elicited with a 60 Hz alternating current of 50 mA intensity in mice and about 150 mA intensity in rats (5-7 times that necessary to elicit minimal electroshock seizures), delivered for 0.2 sec via corneal electrodes. A drop of 0.9% saline is instilled in the eye prior to application of the electrodes in order to […]. Abolition of the hind limb tonic extension component of the seizure is defined as protection and results are expressed as number of animals protected/number of animals tested. The Subcutaneous Pentylenetetrazol (Metrazole) Seizure Threshold Test (scMet): A 0.5% solution of 85 mg/kg of pentylenetetrazol is administered subcutaneously in the posterior midline 30 minutes or 4 hours after drug administration to the animal. […] This species will be the subject of the complete anticonvulsant quantification test evaluation as described above, but after oral (gavage) administration of the candidate compound.

[2] = 100 mg/kg i.p., 15 min, Table 3 value * significantly different from control
[3] = 100 mg/kg i.p., 45 min, Table 3 value * significantly different from control
[4] = 100 mg/kg i.p., 75 min, Table 3 value * significantly different from control
[5] = 100 mg/kg i.p., 105 min, Table 3 value * significantly different from control

With `CC(Nc1ccc(Cl)cc1)c1ccncc1` (single isomer, unassigned; (+)) [Compound 1, (+) N-(4-Chlorophenyl)-1-(4-pyridyl)ethylamine] the “Afterdischarge Duration (sec) ± S.E.M.” value (hippocampal kindled rats; 25 mg/kg i.p., 15 min) was 76.63 ± 7.34 s, the “Seizure Score ± S.E.M.” value (hippocampal kindled rats; 25 mg/kg i.p., 15 min) was 4.63 ± 0.18 and the “# Protected/# Tested” value (hippocampal kindled rats; 25 mg/kg i.p., 45 min) was 2/8. The “Afterdischarge Duration (sec) ± S.E.M.” value (hippocampal kindled rats; 25 mg/kg i.p., 45 min) was 54.63 ± 12.54 s, the “Seizure Score ± S.E.M.” value (hippocampal kindled rats; 25 mg/kg i.p., 45 min) was 3.75 ± 0.65 and the “Afterdischarge Duration (sec) ± S.E.M.” value (hippocampal kindled rats; 25 mg/kg i.p., 75 min) was 62.75 ± 10.46 s. The “Seizure Score ± S.E.M.” value (hippocampal kindled rats; 25 mg/kg i.p., 75 min) was 4.13 ± 0.48, the “Afterdischarge Duration (sec) ± S.E.M.” value (hippocampal kindled rats; 25 mg/kg i.p., 105 min) was 74.75 ± 6.44 s and the “Seizure Score ± S.E.M.” value (hippocampal kindled rats; 25 mg/kg i.p., 105 min) was 5.00 ± 0.00. For the same molecule, the “Seizure Score ± S.E.M.” value (hippocampal kindled rats; 25 mg/kg i.p., 135 min) was 4.50 ± 0.19, the “Afterdischarge Duration (sec) ± S.E.M.” value (hippocampal kindled rats; 50 mg/kg i.p., 15 min) was 56.43 ± 7.60 s and the “Seizure Score ± S.E.M.” value (hippocampal kindled rats; 50 mg/kg i.p., 15 min) was 3.75 ± 0.53. For the same molecule, the “# Protected/# Tested” value (hippocampal kindled rats; 50 mg/kg i.p., 45 min) was 2/8, the “Afterdischarge Duration (sec) ± S.E.M.” value (hippocampal kindled rats; 50 mg/kg i.p., 45 min) was 63.38 ± 10.75 s and the “Seizure Score ± S.E.M.” value (hippocampal kindled rats; 50 mg/kg i.p., 45 min) was 4.13 ± 0.40. The “Afterdischarge Duration (sec) ± S.E.M.” value (hippocampal kindled rats; 50 mg/kg i.p., 75 min) was 63.14 ± 6.38 s, the “Seizure Score ± S.E.M.” value (hippocampal kindled rats; 50 mg/kg i.p., 75 min) was 4.71 ± 0.18 and the “Afterdischarge Duration (sec) ± S.E.M.” value (hippocampal kindled rats; 50 mg/kg i.p., 105 min) was 74.57 ± 11.58 s. For the same molecule, the “Seizure Score ± S.E.M.” value (hippocampal kindled rats; 50 mg/kg i.p., 105 min) was 4.71 ± 0.18, the “Afterdischarge Duration (sec) ± S.E.M.” value (hippocampal kindled rats; 50 mg/kg i.p., 135 min) was 61.43 ± 12.97 s and the “Seizure Score ± S.E.M.” value (hippocampal kindled rats; 50 mg/kg i.p., 135 min) was 4.00 ± 0.69. For the same molecule, the “Afterdischarge Duration (sec) ± S.E.M.” value (hippocampal kindled rats; 50 mg/kg i.p., 165 min) was 73.14 ± 9.41 s, the “Seizure Score ± S.E.M.” value (hippocampal kindled rats; 50 mg/kg i.p., 165 min) was 4.57 ± 0.20 and the “Afterdischarge Duration (sec) ± S.E.M.” value (hippocampal kindled rats; 75 mg/kg i.p., 15 min) was 63.29 ± 6.70 s. The “Seizure Score ± S.E.M.” value (hippocampal kindled rats; 75 mg/kg i.p., 15 min, * significantly different from control) was 2.86 ± 0.59, the “# Protected/# Tested” value (hippocampal kindled rats; 75 mg/kg i.p., 45 min) was 5/7 and the “Afterdischarge Duration (sec) ± S.E.M.” value (hippocampal kindled rats; 75 mg/kg i.p., 45 min) was 55.43 ± 10.39 s. For the same molecule, the “Seizure Score ± S.E.M.” value (hippocampal kindled rats; 75 mg/kg i.p., 45 min, * significantly different from control) was 2.43 ± 0.69, the “Afterdischarge Duration (sec) ± S.E.M.” value (hippocampal kindled rats; 75 mg/kg i.p., 75 min) was 74.57 ± 10.36 s and the “Seizure Score ± S.E.M.” value (hippocampal kindled rats; 75 mg/kg i.p., 75 min, * significantly different from control) was 2.86 ± 0.59. For the same molecule, the “Afterdischarge Duration (sec) ± S.E.M.” value (hippocampal kindled rats; 75 mg/kg i.p., 105 min) was 68.57 ± 5.52 s, the “Seizure Score ± S.E.M.” value (hippocampal kindled rats; 75 mg/kg i.p., 105 min, * significantly different from control) was 3.86 ± 0.34 and the “Afterdischarge Duration (sec) ± S.E.M.” value (hippocampal kindled rats; 75 mg/kg i.p., 135 min) was 65.00 ± 4.12 s. For the same molecule, the “Seizure Score ± S.E.M.” value (hippocampal kindled rats; 75 mg/kg i.p., 135 min) was 4.14 ± 0.26, the “Afterdischarge Duration (sec) ± S.E.M.” value (hippocampal kindled rats; 100 mg/kg i.p., 15 min) was 63.43 ± 11.37 s and the “Seizure Score ± S.E.M.” value (hippocampal kindled rats; [2]) was 2.00 ± 0.69. For the same molecule, the “# Protected/# Tested” value (hippocampal kindled rats; 100 mg/kg i.p., 45 min) was 6/7, the “Afterdischarge Duration (sec) ± S.E.M.” value (hippocampal kindled rats; 100 mg/kg i.p., 45 min) was 63.29 ± 4.76 s and the “Seizure Score ± S.E.M.” value (hippocampal kindled rats; [3]) was 2.00 ± 0.58. The “Afterdischarge Duration (sec) ± S.E.M.” value (hippocampal kindled rats; 100 mg/kg i.p., 75 min) was 75.43 ± 9.70 s, the “Seizure Score ± S.E.M.” value (hippocampal kindled rats; [4]) was 2.29 ± 0.61 and the “Afterdischarge Duration (sec) ± S.E.M.” value (hippocampal kindled rats; 100 mg/kg i.p., 105 min) was 71.00 ± 5.35 s. For the same molecule, the “Seizure Score ± S.E.M.” value (hippocampal kindled rats; [5]) was 2.29 ± 0.71, the ED50 (hippocampal kindled rats; Rattus norvegicus, ip, 0.75 h, hippocampal kindled rats, 45 min, 95% C.I. printed b332) was 54.9 mg/kg and the Slope (hippocampal kindled rats; dose response, hippocampal kindled rats, i.p., 45 min) was 2.93 ± 1.16. The “seizure score and afterdischarge duration (in words)” value (hippocampal kindled rats; i.p.) was “significantly reduced seizure score and afterdischarge duration and the effect was dose-dependent”, the “seizure score and afterdischarge duration (in words)” value (hippocampal kindled rats; i.p., listed as (+) N-(4-chlorophenyl)-1-(4-pyridyl)ethylamine) was “significantly reduced from that of the control” and the ED50 ([1]; listed as (1) (+) Enantiomer) was 10.2 mg/kg. For the same molecule, the “P.I. (protective index, TD50/ED50)” value ([1]; listed as (1) (+) Enantiomer) was over 49.1.

For `CC(Nc1ccc(Cl)cc1)c1ccncc1` (single isomer, unassigned; (-)) [Compound 2, (-) N-(4-Chlorophenyl)-1-(4-pyridyl)ethylamine], the “Afterdischarge Duration (sec) ± S.E.M.” value (hippocampal kindled rats; 100 mg/kg i.p., 15 min) was 69.88 ± 8.29 s, the “Seizure Score ± S.E.M.” value (hippocampal kindled rats; [2]) was 4.63 ± 0.38 and the “Afterdischarge Duration (sec) ± S.E.M.” value (hippocampal kindled rats; 100 mg/kg i.p., 45 min) was 74.88 ± 10.31 s. For the same molecule, the “Seizure Score ± S.E.M.” value (hippocampal kindled rats; [3]) was 4.25 ± 0.49, the “Afterdischarge Duration (sec) ± S.E.M.” value (hippocampal kindled rats; 100 mg/kg i.p., 75 min) was 82.50 ± 6.11 s and the “Seizure Score ± S.E.M.” value (hippocampal kindled rats; [4]) was 4.75 ± 0.16. The “Afterdischarge Duration (sec) ± S.E.M.” value (hippocampal kindled rats; 100 mg/kg i.p., 105 min) was 75.75 ± 11.71 s, the “Seizure Score ± S.E.M.” value (hippocampal kindled rats; [5]) was 4.50 ± 0.50 and the “Afterdischarge Duration (sec) ± S.E.M.” value (hippocampal kindled rats; 100 mg/kg i.p., 135 min) was 82.63 ± 5.04 s. For the same molecule, the “Seizure Score ± S.E.M.” value (hippocampal kindled rats; 100 mg/kg i.p., 135 min) was 4.75 ± 0.16, the “Afterdischarge Duration (sec) ± S.E.M.” value (hippocampal kindled rats; 100 mg/kg i.p., 165 min) was 79.00 ± 12.92 s and the “Seizure Score ± S.E.M.” value (hippocampal kindled rats; 100 mg/kg i.p., 165 min) was 4.13 ± 0.61. For the same molecule, the “# Protected/# Tested” value (hippocampal kindled rats; 100 mg/kg i.p., 195 min) was 2/8, the “Afterdischarge Duration (sec) ± S.E.M.” value (hippocampal kindled rats; 100 mg/kg i.p., 195 min) was 69.25 ± 11.15 s and the “Seizure Score ± S.E.M.” value (hippocampal kindled rats; 100 mg/kg i.p., 195 min) was 3.88 ± 0.67. The “Afterdischarge Duration (sec) ± S.E.M.” value (hippocampal kindled rats; 100 mg/kg i.p., 225 min) was 83.75 ± 5.17 s, the “Seizure Score ± S.E.M.” value (hippocampal kindled rats; 100 mg/kg i.p., 225 min) was 4.25 ± 0.16 and the “Afterdischarge Duration (sec) ± S.E.M.” value (hippocampal kindled rats; 100 mg/kg i.p., 255 min) was 73.13 ± 11.97 s. For the same molecule, the “Seizure Score ± S.E.M.” value (hippocampal kindled rats; 100 mg/kg i.p., 255 min) was 4.00 ± 0.50, the “Afterdischarge Duration (sec) ± S.E.M.” value (hippocampal kindled rats; 100 mg/kg i.p., 285 min) was 84.50 ± 6.76 s and the “Seizure Score ± S.E.M.” value (hippocampal kindled rats; 100 mg/kg i.p., 285 min) was 4.83 ± 0.17. The “activity in hippocampal kindled rat (in words)” value (hippocampal kindled rats; i.p.) was “only moderate activity”, the ED50 ([1]; listed as (1) (-) Enantiomer) was 25.8 mg/kg and the “P.I. (protective index, TD50/ED50)” value ([1]; listed as (1) (-) Enantiomer) was over 19.4.
